Measured values reported in US11191746B2, “Composition for inhibiting a growth of cancer stem cells comprising ciclesonide” (JEJU NATIONAL UNIVERSITY INDUSTRY-ACADEMIC COOPERATION …, priority 2016, dated 2021).

Key:
MCF-7 cells = test: CD44 and CD24 expression flow cytometric analysis; assay type: cell-based, human; conditions: 24 hours, FACS
Method: The expression of CD44 and CD24 in MCF-7 cells was measured by FACS analysis. After isolating and harvesting cells using 1× trypsin/EDTA, one million cells were suspended, labeled with an FITC-conjugated anti-human CD44 antibody and a PE-conjugated anti-human CD24 antibody (BD Pharmingen, San Diego, Calif., USA), and incubated at 4° C. for 30 minutes. The cells were then washed three times with 1× PBS and analyzed by flow cytometry (Accuri C6, BD, San Diego, Calif., USA).

MDA-MB-231 cells [1] = test: Scratch migration analysis; assay type: cell-based, human; conditions: MDA-MB-231, wound healing at 18 hours
Method: (§1) MDA-MB-231 cells or A549 cells were inoculated into a 6-well plate and grown to 90% confluency. A scratch was made on the cell layer using a sterile white micropipette tip. After washing with DMEM medium, the breast cancer cells or lung cancer cells were treated with ciclesonide or DMSO. At 18 hours, wounded areas were photographed using an optical microscope at a magnification of ×40.

A549 cells [2] = test: Scratch migration analysis; assay type: cell-based, human; conditions: A549, wound healing at 18 hours
Method: as §1

A549 cells [3] = test: ALDEFLUOR analysis, lung cancer cells; assay type: cell-based, human; conditions: 24 hours
Method: An ALDEFLUOR analysis system provides a novel approach to the identification, evaluation, and isolation of CSCs based on the activity of aldehyde dehydrogenase (ALDH). BODIPY-aminoacetaldehyde as an active reagent was added to breast cancer cells or lung cancer cells, and converted into fluorescent BODIPY-aminoacetate by ALDH. Diethylaminobenzaldehyde (DEAB), which is an ALDH inhibitor, was used as a negative control. MCF-7 cells or A549 cells were treated with 10 μM or 20 μM ciclesonide for 24 hours, and the proportion of ALDH-positive cells was analyzed by ALDEFLUOR assay. ALDH-positive and negative cells were sorted by C6 Accuri flow cytometry (BD Bioscience).

A549 cells [4] = test: Lung cancer cell proliferation assay (MTS); assay type: cell-based, human; conditions: A549, 48 hours after treatment
Method: The proliferation rates of MCF-7 cells and MDA-MB-231 cells were measured using a CellTiter 96® aqueous one solution cell proliferation kit. The MCF-7 cells or the MDA-MB-231 cells were cultured in a 96-well plate for 48 hours in the presence of ciclesonide at concentrations of 0 μM, 5 μM, 10 μM, 20 μM, 40 μM, and 80 μM. In accordance with the manufacturer's protocol, absorbance at 490 nm was determined using a 96-well plate reader (Dynex Revelation, Dynex Ltd., Billingshurst, UK). Respective data was determined by measuring three sets.
An experiment was performed in the same manner as in Example 10-1, except that A549 cells were used as lung cancer cells and treated with ciclesonide at concentrations of 0 μM, 10 μM, 20 μM, 40 μM, 80 μM, and 100 μM.

IL-8 = test: Human inflammatory cytokine assay (CBA), mammosphere culture solution; assay type: cell-based; conditions: MDA-MB-231 mammosphere culture solution
Method: (§2) Mixed capture beads were vortexed and 50 μl of beads were added to assay tubes. 50 μl of human inflammatory cytokine standard and the cultured tumorsphere solution were added to the assay tubes, and then mixed with a cytokine PE solution. After 3 hours, the mixed solution was washed and analyzed by flow cytometry (Accuri C6, BD, San Diego, Calif., USA).

IL-6 = test: as above; assay type: cell-based; conditions: MDA-MB-231 mammosphere culture solution
Method: as §2

STAT3 = test: Western blotting of mammosphere nuclear proteins; assay type: cell-based, human; conditions: MCF-7 cells-derived mammospheres
Method: Proteins isolated from ciclesonide-treated MCF-7 or MDA-MB-231 mammospheres were separated on 10% SDS-PAGE and transferred to a polyvinylidene difluoride membrane (Millipore, Bedford, Mass., USA). The membrane was blocked in PBS-Tween 20 (0.1%, v/v) containing 5% skimmed milk at room temperature for 30 minutes. The blot was incubated at 4° C. overnight with a blocking solution containing primary antibodies. The primary antibodies used were as follows: Stat3, p65, Lamin B, and phospho-Stat3 (Cell Signaling, Beverly, Mass., USA). β-actin (Santa Cruz Biotechnology) was used as a loading control. After washing with PBS-Tween 20 (0.1%, v/v), the blot was incubated with horseradish peroxidase-conjugated secondary antibodies, and photosensitized with a chemiluminescence detection kit (Santa Cruz Biotechnology).

MDA-MB-231 cells [5] = test: Clonogenic assay; assay type: cell-based, human
Method: (§3) MDA-MB-231 cells or A549 cells were inoculated at low density in a 6-well plate, and, in a DMEM medium, the MDA-MB-231 cells were treated with different concentrations of ciclesonide, or the A549 cells were treated with 10 μM ciclesonide. After 24 hours, the medium was replaced with a new medium and cultured for […] to allow the cells to grow. The grown colonies were counted.

A549 cells [6] = test: Clonogenic assay; assay type: cell-based, human; conditions: A549, 10 μM
Method: as §3

## CC(C)C(=O)OCC(=O)[C@@]12O[C@H](C3CCCCC3)O[C@@H]1C[C@H]1[C@@H]3CCC4=CC(=O)C=C[C@]4(C)[C@H]3[C@@H](O)C[C@@]12C [ciclesonide]
MCF-7 cells
  subpopulation expressing CD44high/CD24low: reduced
MDA-MB-231 cells [1]
  migration: inhibited
A549 cells [2]
  migration: inhibited
A549 cells [3]
  proportion of ALDH-positive lung cancer cells: reduced
A549 cells [4]
  concentration at which growth of the cell line was inhibited in a concentration-dependent manner: ≥ 40 µM
IL-8
  production level of secreted IL-8: reduced
IL-6
  production level of secreted IL-6: reduced
STAT3
  phosphorylation of nuclear STAT3 protein compared to a control: reduced
MDA-MB-231 cells [5]
  colony formation: inhibited
A549 cells [6]
  colony formation: inhibited
